For one data set, the system named is MRSA biofilm. In words: MRSA biofilm formation inhibition (crystal violet). The note with it: Staphylococcus aureus, at 128 µg/mL (highest concentration tested), 24 h, 37 °C, CV staining. Format: cell-based, methicillin-resistant Staphylococcus aureus. On the procedure: To assess the ability of ester-functionalized cholinium-based ILs to suppress MRSA biofilm formation, CnECholBr samples were introduced to newly prepared bacterial suspensions. These mixtures were then incubated for 24 h at 37 °C. Subsequently, crystal violet (CV) staining was employed to quantify the biofilm biomass. The findings from this experiment are illustrated in Figure 4.
(§1) Antibiofilm activity was assessed against biofilm-forming strains of methicillin-resistant Staphylococcus aureus (MRSA) ATCC 43300 and Candida albicans ATCC 90028. The biofilm inhibition and eradication capacities of ILs were evaluated against adherent bacterial biofilms grown in 96-well microtiter plates. Bacteria were grown on Tryptic soy agar at 37 °C for 24 h and the fungi on Sabouraud agar at 30 °C for 24 h. Bacteria were suspended in lysogeny broth containing glucose (1%) at 1.5 × 10^8 CFU/mL and yeasts were suspended in RPMI medium at 1.5 × 10^7 CFU/mL.
To assess the effect of ionic liquids on bacterial biofilm formation, we employed a microplate assay. We added 100 μL of IL at varying concentrations (2–128 μg/mL, using two-fold serial dilutions) to each well of a 96-well microplate, followed by 100 μL of diluted bacterial suspension. After incubating the plates at 37 °C for 24 h, we measured bacterial growth by recording the optical density at 600 nm (OD600). We then discarded the spent media, fixed the biofilm with methanol, and stained it with crystal violet. Following a water rinse, we dissolved the stained biofilm using an ethanol-acetic acid solution and measured the absorbance at 570 nm to quantify biofilm formation. To ensure reproducibility, we performed each assay in triplicate and averaged the results.

The test system of data set [1] is MRSA biofilms. The experiment in a line: MRSA mature biofilm eradication (crystal violet). Format: cell-based, methicillin-resistant Staphylococcus aureus. The note with it: CV staining, up to the highest tested concentration of 256 µg/mL. As to the method: The capacity of the ester-functionalised cholinium-based ILs to eradicate established MRSA biofilms was evaluated through the performance of eradication assays on microtiter plates. CV staining was applied to measure biofilm biomass.
as §1
To evaluate the effect of ionic liquids on mature biofilms, we employed a modified microtiter plate assay. We first generated mature biofilms by incubating 200 μL of diluted bacterial suspension in each well of a 96-well plate for 24 h at 37 °C. After gently washing the biofilms with PBS, we added 200 μL of ionic liquid solution at various concentrations (4–256 μg/mL, using two-fold serial dilutions) to each well and incubated for an additional 24 h at 37 °C. Following treatment, we fixed the biofilms with 150 μL methanol for 10 min. The subsequent crystal violet (CV) staining and quantification steps were performed as described in the previous biofilm formation assay (Section 3.6.1), allowing us to assess the impact of ionic liquids on established biofilms.

A further data set concerns MRSA. In words: MIC broth microdilution. The class given is cell-based, methicillin-resistant Staphylococcus aureus. Conditions: Staphylococcus aureus, ATCC 43300 / MRSA; MRSA ATCC 43300, 24 h, 37 °C. As to the method: (§2) The antimicrobial activity of cholinium-based ILs with an ester group in the alkyl chain was evaluated against a range of representative bacteria and fungi.
(§3) Antibacterial assays were performed against the following microorganisms: Bacillus subtilis ATCC 6633, Staphylococcus epidermidis ATCC 12228, Staphylococcus aureus ATCC 29213, Micrococcus luteus ATCC10240, Listeria monocytogenes ATCC 15313, methicillin-resistant Staphylococcus aureus ATCC 43300, Escherichia coli ATCC 8739, Acinetobacter baumannii ATCC 19606, Klebsiella aerogenes ATCC 13048, Pseudomonas aeruginosa 9027, and Salmonella enterica ATCC14208. The antibacterial activity was assessed in vitro using the minimum inhibitory concentration (MIC) method. MIC is defined as the lowest concentration of an antimicrobial agent that prevents visible bacterial growth after 24 h of incubation at 37 °C. The ionic liquids were dissolved in Mueller–Hinton broth (MBH) at concentrations ranging from 1 to 256 μg/mL. The broth was added (200 μL) to appropriate wells of a 96-well polystyrene microtitre plate. Then, 10 μL of a nutrient broth starter culture of each bacterial strain was added to achieve final inocula of approximately […] colony forming units (CFU)/mL. A growth control using nutrient broth medium without the ionic liquid was included. The plates were incubated 37 °C for 24 h. Bacterial growth was initially observed visually, with increased turbidity indicating cell growth. […] A color change of resazurine from blue to pink indicated bacterial metabolic activity. All the experiments were performed in triplicate to ensure reproducibility.

In data set [2] the test system is MRSA biofilms. The class given is cell-based, methicillin-resistant Staphylococcus aureus. Conditions: MRSA biofilm, MTT. On the procedure:
The biocidal activity of the ester-functionalized choline-based ILs on bacterial and fungal cells in biofilms was assessed by MTT cell viability assays. CnECholBr were evaluated for their potential to kill cells in pre-established biofilms of MRSA and C. albicans, two clinically relevant pathogens. Pre-formed biofilms on 48-wells plates were treated with increasing concentrations of the ester-functionalized choline-based ILs and the cell viability of the sessile cells was quantified by the MTT method. The results obtained for MRSA and C. albicans biofilms are shown in Figure 6a and Figure 6b, respectively.
as §1
For mature biofilm formation, 200 μL of the bacterial or fungal suspension was added to each well in a 48-well microplate, and incubated for 24 h at 37 °C for bacteria and 30 °C for yeast. The wells were then washed three times with PBS and 200 µL of each test solution with different concentrations of surfactants prepared in MHB (for bacteria) or RPMI medium (for yeasts) was added to each well containing the preformed biofilm. The plates were incubated for 24 h at 30 °C. The medium was removed and the wells were then washed twice with PBS. MTT solution (200 μL) was added to each well and the plate was incubated for 4 h. The MTT was then removed and 200 μL of DMSO was added to solubilize […]. The OD value was recorded at 540 nm. Controls were performed with non-ionic liquids. Each assay was run four times and the results were averaged.

The next data set relates to Micrococcus luteus. In words: MIC broth microdilution. The class given is cell-based. The note with it: Micrococcus luteus ATCC10240, 24 h, 37 °C. As to the method:
as §2, §3

A further data set concerns Vibrio fischeri. In words: Vibrio fischeri bioluminescence inhibition assay. The class given is cell-based. The note with it: Aliivibrio fischeri, 0.5 h; luminescence inhibition, 30-min exposure, 15 °C; read-out: V. fisheri, EC50 (95% CI). On the procedure:
To assess the aquatic toxicity of ester-functionalized cholinium-based ILs, a series of toxicity tests were conducted using the saltwater bacterium Vibrio fischeri. The bioluminescence inhibition assay with V. fischeri is a well-standardized and frequently employed method in ecotoxicological studies due to its sensitivity and reliability. The experimental procedure involved exposing V. fischeri to increasing concentrations of ILs and measuring the reduction in bioluminescence after a 30-min period. This bioluminescence reduction serves as a quantitative indicator of the ILs’ aquatic toxicity in marine bacteria.
The V. fisheri bioluminescence assay was used to assess the aquatic toxicity of ester-functionalized choline-based ILs. […] We determined the concentration causing a 50% reduction in bacterial light emission (EC50) through regression analysis. The reported toxicity data are based on a 30-min exposure of the bacteria to the ionic liquid solution at 15 °C.

Some results are limits rather than exact numbers.

As usually defined, the inhibition is the share of the control response that was lost under treatment. A higher inhibition goes with a strong effect. A word on the MIC: it is the smallest concentration in the dilution series that meets the test's criterion for growth inhibition. Higher therefore signals a need for much substance. A word on the EC50: it is the concentration giving half of the maximal effect.

`CCCCCCCCCCCCCCOC(=O)C[N+](C)(C)CCO.[Br-]` [C14ECholBr, N-(2-hydroxyethyl)-N,N-dimethyl-2-oxo-2-(tetradecyloxy)ethan-1-aminium bromide]: the inhibition at 128 µg/mL with MRSA biofilm was not above 50%. This compound also registered a biofilm biomass removal with MRSA biofilms [1] not above 60%. Besides, the MIC against MRSA is more than 256 µg/mL; in the data set on Micrococcus luteus it was 8 µg/mL. Also, the cell viability entry with MRSA biofilms [2] (plateau at and above 128 µg/mL) is recorded as “around 30%”. For the same compound, in the data set on Vibrio fischeri, the EC50 is 0.44 µg/mL.

Compound `CCCCCCCCCCOC(=O)C[N+](C)(C)CCO` [C10ECholBr] came in with an inhibition at 128 µg/mL in the data set with MRSA biofilm of less than 15%. In addition, the biofilm biomass removal entry with MRSA biofilms [1] is recorded as “less than 20%”. The minimum inhibitory concentration (MIC) against MRSA and against Micrococcus luteus was more than 256 µg/mL throughout. Moreover, the “reduction in cell viability” value with MRSA biofilms [2] (at 32 µg/mL) worked out at 50%. Moreover, the concentration giving a half-maximal response (EC50) with Vibrio fischeri worked out at 1.7 µg/mL.

For `CCCCCCCCCCCCOC(=O)C[N+](C)(C)CCO` [C12ECholBr], the inhibition at 128 µg/mL in the data set with MRSA biofilm was more than 90%. The same compound yielded a biofilm biomass removal in the data set on MRSA biofilms [1] not above 60%. Besides, the minimal inhibitory concentration (MIC) is 64 µg/mL in the data set on MRSA and 16 µg/mL in the data set with Micrococcus luteus. Also, the “inhibition of cell viability” value in the data set on MRSA biofilms [2] (concentrations ≥ 128 µg/mL) is more than 95%. Moreover, the concentration giving a half-maximal response (EC50) in the data set on Vibrio fischeri turned out to be 0.27 µg/mL.

(Values after paper PMC11946258, “Self-Assembly, Antimicrobial Properties and Biodegradability of Ester-Functionalized Choline-Based Surface-Active Ionic Liquids” (Molecules, 2025).)
